In PubChem BioAssay AID256 (DTP/NCI, 2004):
Inconclusive results and toxic doses are left out. How the source made its calls: active means survival T/C of 150% or more; inactive means T/C below 125% in these data. Non-standard residues stand in square brackets, D forms with d. Residues, ends and D or L forms follow the SMILES beside them. *: point of attachment. Cbz = O=C(OCc1ccccc1)*; Abu = CC[CH](N)C(=O)O

System: CD2F1 mice, L1210 leukemia ip, survival T/C
Assay: NCI In Vivo Anticancer Drug Screen. Data for tumor model L1210 Leukemia (intraperitoneal) in CD2F1 (CDF1) mice
Details: higher = longer survival
Procedure, shortened: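 Tumor-bearing mice (transplanted tumor) were split into treated and vehicle control groups, and the measured endpoint of each treated group was divided by that of its vehicle controls.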

[1] = endpoint: mean survival time, dose: 100.0 mg/kg/injection, schedule: Q01DX001 (ip), vehicle: saline with Tween-80
[2] = endpoint: mean survival time, dose: 200.0 mg/kg/injection, schedule: Q01DX001 (ip), vehicle: saline with Tween-80
[3] = endpoint: mean survival time, dose: 400.0 mg/kg/injection, schedule: Q01DX001 (ip), vehicle: saline with Tween-80
[4] = endpoint: mean survival time, dose: 50.0 mg/kg/injection, schedule: Q01DX009 (ip), vehicle: saline with Tween-80
[5] = endpoint: mean survival time, dose: 100.0 mg/kg/injection, schedule: Q01DX009 (ip), vehicle: saline with Tween-80
[6] = endpoint: mean survival time, dose: 200.0 mg/kg/injection, schedule: Q01DX009 (ip), vehicle: saline with Tween-80
[7] = endpoint: mean survival time, dose: 100.0 mg/kg/injection, schedule: Q04DX003 (ip), vehicle: saline with Tween-80
[8] = endpoint: mean survival time, dose: 200.0 mg/kg/injection, schedule: Q04DX003 (ip), vehicle: saline with Tween-80
[9] = endpoint: mean survival time, dose: 400.0 mg/kg/injection, schedule: Q01DX009 (ip), vehicle: saline with Tween-80
[10] = endpoint: mean survival time, dose: 400.0 mg/kg/injection, schedule: Q04DX003 (ip), vehicle: saline with Tween-80
[11] = endpoint: mean survival time, dose: 100.0 mg/kg/injection, schedule: Q01DX009 (ip), vehicle: saline sonified
[12] = endpoint: mean survival time, dose: 75.0 mg/kg/injection, schedule: Q01DX001 (ip), vehicle: saline
[13] = endpoint: mean survival time, dose: 150.0 mg/kg/injection, schedule: Q01DX001 (ip), vehicle: saline
[14] = endpoint: mean survival time, dose: 100.0 mg/kg/injection, schedule: Q04DX002 (ip), vehicle: saline with Tween-80
[15] = endpoint: mean survival time, dose: 400.0 mg/kg/injection, schedule: Q04DX002 (ip), vehicle: saline with Tween-80

Measured: T/C

CCC(NC(=O)OCc1ccccc1)C(=O)N1CCCC1C(=O)OC (stereo not given) (Cbz-[Abu]-Pro-OMe; configuration not given here)
inactive: [1] 103 % of control | [2] 104 % of control | [3] 103 % of control

Clc1ncnc2c1ncn2C1CCCCO1 (stereo not given)
inactive: endpoint: mean survival time, dose: 176.0 mg/kg/injection, schedule: Q01DX009 (ip), vehicle: other 117 % of control

CCCCOC(=O)CC(O)C(=O)OCCCC (stereo not given)
inactive: [4] 113 % of control | [5] 107 % of control | [6] 103 % of control

O=C(Cl)C1CCCCC1
inactive: [1] 93 % of control | [2] 97 % of control | [3] 89 % of control

O=C(O)c1ccccc1C(=O)Nc1ccccc1C(F)(F)F
inactive: [5] 104 % of control | [7] 96 % of control | [6] 106 % of control | [8] 102 % of control | [9] 95 % of control | [10] 105 % of control

CCOC(=O)CCC(NC(=O)c1ccc(CN(C)Cc2cnc3nc(N)nc(N)c3n2)cc1)C(=O)OCC (stereo not given)
inactive: endpoint: mean survival time, dose: 1.0 mg/kg/injection, schedule: Q01DX009 (ip), vehicle: Klucel (hydroxypropylcellulose) (HPC) 100 % of control | endpoint: mean survival time, dose: 10.0 mg/kg/injection, schedule: Q01DX009 (ip), vehicle: Klucel (hydroxypropylcellulose) (HPC) 108 % of control | endpoint: mean survival time, dose: 25.0 mg/kg/injection, schedule: Q01DX009 (ip), vehicle: Klucel (hydroxypropylcellulose) (HPC) 115 % of control

CCCCCCCCCC(=O)Nc1ccc(C(=O)OCC)cc1
inactive: [5] 95 % of control | [6] 97 % of control | [9] 98 % of control

NC(N)=NC(N)=Nc1ccc([As](=O)(O)O)c(O)c1
inactive: [11] 111 % of control

COC1OC(Nc2nc(SC)[nH]c(=O)c2C(C)=O)C(O)C(O)C1O (stereo not given)
inactive: endpoint: median survival time, dose: 12.5 mg/kg/injection, schedule: Q01DX005 (ip), vehicle: saline with Tween-80 98 % of control | endpoint: median survival time, dose: 25.0 mg/kg/injection, schedule: Q01DX005 (ip), vehicle: saline with Tween-80 97 % of control | endpoint: median survival time, dose: 50.0 mg/kg/injection, schedule: Q01DX005 (ip), vehicle: saline with Tween-80 94 % of control | endpoint: median survival time, dose: 100.0 mg/kg/injection, schedule: Q01DX005 (ip), vehicle: saline with Tween-80 95 % of control | endpoint: median survival time, dose: 200.0 mg/kg/injection, schedule: Q01DX005 (ip), vehicle: saline with Tween-80 97 % of control

COc1ccc(/C=C2/N=C(C)OC2=O)cc1OC(C)=O
inactive: endpoint: mean survival time, dose: 100.0 mg/kg/injection, schedule: Q01DX001 (ip), vehicle: saline 92 % of control | endpoint: mean survival time, dose: 200.0 mg/kg/injection, schedule: Q01DX001 (ip), vehicle: saline 93 % of control | endpoint: mean survival time, dose: 400.0 mg/kg/injection, schedule: Q01DX001 (ip), vehicle: saline 96 % of control

O=P(Cc1ccccc1)(Cc1ccccc1)c1ccccc1
inactive: [12] 95 % of control | [13] 93 % of control | endpoint: mean survival time, dose: 300.0 mg/kg/injection, schedule: Q01DX001 (ip), vehicle: saline 100 % of control

c1ccc2c([Si](O[Si](c3cccc4ccccc34)C3CCCCC3)C3CCCCC3)cccc2c1
inactive: [5] 100 % of control | [7] 93 % of control | [6] 91 % of control | [8] 91 % of control | [9] 88 % of control

CC(C)[C@]12O[C@H]1[C@@H]1O[C@]13[C@]1(O[C@H]1C[C@H]1C4=C(CC[C@@]13C)C(=O)OC4)[C@@H]2O
inactive: endpoint: mean survival time, dose: 0.8 micrograms/kg/injection, schedule: Q01DX009 (ip), vehicle: saline + alcohol 96 % of control | endpoint: mean survival time, dose: 1.6 micrograms/kg/injection, schedule: Q01DX009 (ip), vehicle: saline + alcohol 91 % of control | endpoint: mean survival time, dose: 6.3 micrograms/kg/injection, schedule: Q01DX009 (ip), vehicle: saline + alcohol 93 % of control | endpoint: mean survival time, dose: 12.5 micrograms/kg/injection, schedule: Q01DX009 (ip), vehicle: saline + alcohol 95 % of control | endpoint: mean survival time, dose: 25.0 micrograms/kg/injection, schedule: Q01DX009 (ip), vehicle: saline + alcohol 96 % of control | endpoint: mean survival time, dose: 50.0 micrograms/kg/injection, schedule: Q01DX009 (ip), vehicle: saline + alcohol 90 % of control | endpoint: mean survival time, dose: 100.0 micrograms/kg/injection, schedule: Q01DX009 (ip), vehicle: saline + alcohol 110 % of control | endpoint: median survival time, dose: 0.02 mg/kg/injection, schedule: Q03HX024 (ip), vehicle: saline + alcohol 111 % of control | endpoint: median survival time, dose: 0.03 mg/kg/injection, schedule: Q03HX024 (ip), vehicle: saline + alcohol 120 % of control | endpoint: median survival time, dose: 0.06 mg/kg/injection, schedule: Q01DX009 (ip), vehicle: saline + alcohol 104 % of control | endpoint: median survival time, dose: 0.06 mg/kg/injection, schedule: Q01DX009 (sc), vehicle: saline + alcohol 112 % of control | endpoint: median survival time, dose: 0.13 mg/kg/injection, schedule: Q01DX009 (ip), vehicle: saline + alcohol 120 % of control | endpoint: median survival time, dose: 0.13 mg/kg/injection, schedule: Q01DX009 (sc), vehicle: saline + alcohol 104 % of control | endpoint: median survival time, dose: 0.25 mg/kg/injection, schedule: Q04DX003 (ip), vehicle: saline + alcohol 112 % of control | endpoint: median survival time, dose: 0.25 mg/kg/injection, schedule: Q08DX002 (ip), vehicle: saline + alcohol 107 % of control | endpoint: median survival time, dose: 0.5 mg/kg/injection, schedule: Q01DX001 (sc), vehicle: saline + alcohol 105 % of control | endpoint: median survival time, dose: 0.5 mg/kg/injection, schedule: Q04DX003 (ip), vehicle: saline + alcohol 120 % of control | endpoint: median survival time, dose: 0.5 mg/kg/injection, schedule: Q08DX002 (ip), vehicle: saline + alcohol 115 % of control | endpoint: median survival time, dose: 1.0 mg/kg/injection, schedule: Q01DX001 (sc), vehicle: saline + alcohol 107 % of control | endpoint: median survival time, dose: 1.0 mg/kg/injection, schedule: Q04DX003 (ip), vehicle: saline + alcohol 110 % of control | endpoint: median survival time, dose: 1.0 mg/kg/injection, schedule: Q08DX002 (ip), vehicle: saline + alcohol 116 % of control

O=C([O-])[O-].O=S(=O)(O)O.[Co+3].[NH2-].[NH2-].[NH2-].[NH2-]
inactive: [14] 100 % of control | [15] 107 % of control

O=C(Nc1ccccc1)Nc1ccccc1C(=O)O
inactive: [1] 100 % of control | [2] 95 % of control | [3] 94 % of control

CCN(CCO)c1ccc(N)cc1C
inactive: endpoint: mean survival time, dose: 1.56 mg/kg/injection, schedule: Q01DX009 (ip), vehicle: saline 100 % of control | endpoint: mean survival time, dose: 1.56 mg/kg/injection, schedule: Q04DX003 (ip), vehicle: saline 101 % of control | endpoint: mean survival time, dose: 3.13 mg/kg/injection, schedule: Q01DX009 (ip), vehicle: saline 100 % of control | endpoint: mean survival time, dose: 3.13 mg/kg/injection, schedule: Q04DX003 (ip), vehicle: saline 104 % of control | endpoint: mean survival time, dose: 6.25 mg/kg/injection, schedule: Q01DX009 (ip), vehicle: saline 101 % of control | endpoint: mean survival time, dose: 6.25 mg/kg/injection, schedule: Q04DX003 (ip), vehicle: saline 97 % of control

O=c1[nH]c(=O)n(O)c2nc[nH]c12
inactive: endpoint: mean survival time, dose: 25.0 mg/kg/injection, schedule: Q01DX009 (ip), vehicle: saline with Tween-80 102 % of control | [4] 98 % of control

CC(=O)Nc1nc2ncc(/C=C/c3ccccc3)nc2c(=O)[nH]1
inactive: endpoint: mean survival time, dose: 75.0 mg/kg/injection, schedule: Q01DX001 (ip), vehicle: other 100 % of control | endpoint: mean survival time, dose: 150.0 mg/kg/injection, schedule: Q01DX001 (ip), vehicle: other 97 % of control

Cc1cc(N=Nc2ccccc2)cc(C)c1N
inactive: [5] 96 % of control | [7] 97 % of control | [6] 102 % of control | [8] 98 % of control | [9] 98 % of control | [10] 110 % of control

CNC1CCCCCC1
inactive: [12] 101 % of control | [13] 101 % of control

NC(=O)c1ncn(C2CC3[O][Sn]([c]4ccccc4)([c]4ccccc4)[O]CC3O2)n1 (stereo not given)
inactive: endpoint: mean survival time, dose: 12.5 mg/kg/injection, schedule: Q01DX005 (ip), vehicle: distilled water + Tween-80 101 % of control | endpoint: mean survival time, dose: 25.0 mg/kg/injection, schedule: Q01DX005 (ip), vehicle: distilled water + Tween-80 97 % of control | endpoint: mean survival time, dose: 100.0 mg/kg/injection, schedule: Q01DX005 (ip), vehicle: distilled water + Tween-80 88 % of control | endpoint: mean survival time, dose: 200.0 mg/kg/injection, schedule: Q01DX005 (ip), vehicle: distilled water + Tween-80 95 % of control

NC(=Nc1ccccc1)SCCS(=O)(=O)O
inactive: [7] 102 % of control | [8] 100 % of control | [10] 104 % of control

COCCNC(=O)Nc1cccc2c1CCCC2
inactive: [7] 106 % of control | [8] 97 % of control | [10] 91 % of control

O=C(COc1ccc(F)cc1F)OC(=O)Cc1ccc(Br)cc1
inactive: [14] 101 % of control | endpoint: mean survival time, dose: 200.0 mg/kg/injection, schedule: Q04DX002 (ip), vehicle: saline with Tween-80 105 % of control | [15] 86 % of control

CCCC(=O)NNC(=O)c1ccccn1
inactive: [11] 109 % of control | [7] 101 % of control | [8] 104 % of control | [10] 106 % of control
